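Dose response: 5 concentrations. Exposure: 48 h. Format: 96-well plates. Endpoint: linear interpolation; highest concentration if not reached. At the GI50, growth is halved. TGI denotes the concentration required for complete inhibition of growth.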
Legend:
Test in all cases: growth of human tumour cells (NCI), 48 h
[1] = test system: U251 CNS
[2] = test system: HS 578T breast
[3] = test system: OVCAR-8 ovarian
[4] = test system: UACC-257 melanoma
[5] = test system: RXF 393 renal
[6] = test system: CAKI-1 renal
[7] = test system: HOP-62 NSCLC
[8] = test system: MDA-MB-435
[9] = test system: A549 NSCLC
[10] = test system: ACHN renal
[11] = test system: DU-145 prostate
[12] = test system: SNB-19 CNS
[13] = test system: OVCAR-3 ovarian
[14] = test system: BT-549 breast
[15] = test system: TK-10 renal
[16] = test system: T-47D breast
[17] = test system: UO-31 renal
[18] = test system: OVCAR-4 ovarian
[19] = test system: COLO 205 colon
[20] = test system: OVCAR-5 ovarian
[21] = test system: 786-0 renal
[22] = test system: SF-295 CNS
[23] = test system: MALME-3M melanoma
[24] = test system: LOX IMVI melanoma
[25] = test system: NCI-H460 lung
[26] = test system: RPMI-8226 leukemia
[27] = test system: SK-MEL-2 melanoma
[28] = test system: HCT-116 colon
[29] = test system: HCC-2998 colon
[30] = test system: SN12C renal
[31] = test system: KM12 colon
[32] = test system: SK-MEL-5 melanoma
[33] = test system: CCRF-CEM leukemia
[34] = test system: SW-620 colon
[35] = test system: UACC-62 melanoma
[36] = test system: IGROV1 ovarian
[37] = test system: HOP-92 NSCLC
[38] = test system: NCI-H23 lung
[39] = test system: PC-3 prostate
[40] = test system: K-562 leukemia
[41] = test system: SK-OV-3 ovarian
[42] = test system: HL-60(TB) leukemia
[43] = test system: MDA-MB-468 breast
[44] = test system: NCI-H522 lung
[45] = test system: MCF7 breast
[46] = test system: MDA-MB-231 breast
[47] = test system: A498 renal
[48] = test system: MOLT-4 leukemia
[49] = test system: SF-539 CNS
[50] = test system: HCT-15 colon
[51] = test system: EKVX NSCLC
[52] = test system: SF-268 CNS
[53] = test system: SK-MEL-28 melanoma
[54] = test system: HT29 colon
[55] = test system: NCI-H226 lung
[56] = test system: M14 melanoma
[57] = test system: SR leukemia
[58] = test system: SNB-75 CNS
[59] = test system: NCI/ADR-RES ovarian

Compound: C[C@H](Nc1nc(NCCc2ccccc2)nc2ccccc12)c1ccccc1
- GI50 [1]: 1440 nM
- TGI [1]: 2830 nM
- GI50 [2]: 1450 nM
- TGI [2]: 3460 nM
- GI50 [3]: 1400 nM
- TGI [3]: 2820 nM
- GI50 [4]: 1520 nM
- TGI [4]: 3040 nM
- GI50 [5]: 1070 nM
- TGI [5]: 2310 nM
- GI50 [6]: 1360 nM
- TGI [6]: 2730 nM
- GI50 [7]: 1520 nM
- TGI [7]: 2930 nM
- GI50 [8]: 1370 nM
- TGI [8]: 2730 nM
- GI50 [9]: 1760 nM
- TGI [9]: 6180 nM
- GI50 [10]: 1720 nM
- TGI [10]: 3810 nM
- GI50 [11]: 2480 nM
- TGI [11]: 6950 nM
- GI50 [12]: 2020 nM
- TGI [12]: 5560 nM
- GI50 [13]: 1340 nM
- TGI [13]: 2980 nM
- GI50 [14]: 1330 nM
- TGI [14]: 2640 nM
- GI50 [15]: 1930 nM
- TGI [15]: 5440 nM
- GI50 [16]: 1420 nM
- TGI [16]: 3660 nM
- GI50 [17]: 1220 nM
- TGI [17]: 2530 nM
- GI50 [18]: 1680 nM
- TGI [18]: 5900 nM
- GI50 [19]: 1150 nM
- TGI [19]: 2430 nM
- GI50 [20]: 1630 nM
- TGI [20]: 3420 nM
- GI50 [21]: 1480 nM
- TGI [21]: 2840 nM
- GI50 [22]: 1460 nM
- TGI [22]: 2790 nM
- GI50 [23]: 1400 nM
- TGI [23]: 2780 nM
- GI50 [24]: 1590 nM
- TGI [24]: 3010 nM
- GI50 [25]: 1350 nM
- TGI [25]: 2830 nM
- GI50 [26]: 1400 nM
- TGI [26]: 4170 nM
- GI50 [27]: 1370 nM
- TGI [27]: 2710 nM
- GI50 [28]: 1260 nM
- TGI [28]: 2510 nM
- GI50 [29]: 1400 nM
- TGI [29]: 2700 nM
- GI50 [30]: 1760 nM
- TGI [30]: 4130 nM
- GI50 [31]: 1780 nM
- TGI [31]: 3730 nM
- GI50 [32]: 1370 nM
- TGI [32]: 2660 nM
- GI50 [33]: 1950 nM
- TGI [33]: 7660 nM
- GI50 [34]: 1400 nM
- TGI [34]: 2880 nM
- GI50 [35]: 1530 nM
- TGI [35]: 2900 nM
- GI50 [36]: 1550 nM
- TGI [36]: 3260 nM
- GI50 [37]: 1080 nM
- TGI [37]: 2470 nM
- GI50 [38]: 1440 nM
- TGI [38]: 2900 nM
- GI50 [39]: 1370 nM
- TGI [39]: 3270 nM
- GI50 [40]: 1040 nM
- TGI [40]: 3620 nM
- GI50 [41]: 1560 nM
- TGI [41]: 3000 nM
- GI50 [42]: 1400 nM
- TGI [42]: 3980 nM
- GI50 [43]: 1130 nM
- TGI [43]: 2450 nM
- GI50 [44]: 1500 nM
- TGI [44]: 3090 nM
- GI50 [45]: 1470 nM
- TGI [45]: 2990 nM
- GI50 [46]: 1680 nM
- TGI [46]: 3100 nM
- GI50 [47]: 1450 nM
- TGI [47]: 3370 nM
- GI50 [48]: 1500 nM
- TGI [48]: 3640 nM
- GI50 [49]: 1700 nM
- TGI [49]: 3130 nM
- GI50 [50]: 1420 nM
- TGI [50]: 2900 nM
- GI50 [51]: 1420 nM
- TGI [51]: 3210 nM
- GI50 [52]: 2070 nM
- TGI [52]: 6310 nM
- GI50 [53]: 1470 nM
- TGI [53]: 2800 nM
- GI50 [54]: 1260 nM
- TGI [54]: 2960 nM
- GI50 [55]: 1450 nM
- TGI [55]: 3040 nM
- GI50 [56]: 1530 nM
- TGI [56]: 2920 nM
- GI50 [57]: 1460 nM
- TGI [57]: 3510 nM
- GI50 [58]: 563 nM
- TGI [58]: 3490 nM

Compound: O=C(NN1C(=O)/C(=C/C=C/c2ccc([N+](=O)[O-])o2)SC1=S)c1ccncc1
- GI50 [1]: 1030 nM
- TGI [1]: 2660 nM
- GI50 [2]: 1740 nM
- TGI [2]: 8200 nM
- GI50 [3]: 354 nM
- TGI [3]: 3220 nM
- GI50 [4]: 1530 nM
- TGI [4]: 3310 nM
- GI50 [5]: 1260 nM
- TGI [5]: 2650 nM
- GI50 [6]: 1470 nM
- TGI [6]: 2820 nM
- GI50 [7]: 1580 nM
- TGI [7]: 3140 nM
- GI50 [8]: 634 nM
- TGI [8]: 2220 nM
- GI50 [9]: 2860 nM
- TGI [9]: 10800 nM
- GI50 [10]: 1460 nM
- TGI [10]: 2770 nM
- GI50 [11]: 1960 nM
- TGI [11]: 4800 nM
- GI50 [12]: 1800 nM
- TGI [12]: 3930 nM
- GI50 [13]: 1280 nM
- TGI [13]: 3010 nM
- GI50 [14]: 495 nM
- TGI [14]: 1660 nM
- GI50 [15]: 1630 nM
- TGI [15]: 3030 nM
- GI50 [16]: 1730 nM
- TGI [16]: 4160 nM
- GI50 [17]: 1160 nM
- TGI [17]: 2390 nM
- GI50 [18]: 1620 nM
- TGI [18]: 3270 nM
- GI50 [19]: 1520 nM
- TGI [19]: 2960 nM
- GI50 [20]: 1900 nM
- TGI [20]: 3380 nM
- GI50 [21]: 960 nM
- TGI [21]: 2390 nM
- GI50 [22]: 1760 nM
- TGI [22]: 3270 nM
- GI50 [23]: 240 nM
- TGI [23]: 541 nM
- GI50 [24]: 203 nM
- TGI [24]: 440 nM
- GI50 [59]: 1420 nM
- TGI [59]: 7080 nM
- GI50 [27]: 584 nM
- TGI [27]: 2020 nM
- GI50 [28]: 239 nM
- TGI [28]: 565 nM
- GI50 [29]: 1770 nM
- TGI [29]: 3190 nM
- GI50 [30]: 369 nM
- TGI [30]: 1620 nM
- GI50 [31]: 1630 nM
- TGI [31]: 4010 nM
- GI50 [32]: 1050 nM
- TGI [32]: 2240 nM
- GI50 [33]: 346 nM
- TGI [33]: 3570 nM
- GI50 [34]: 274 nM
- TGI [34]: 739 nM
- GI50 [35]: 377 nM
- TGI [35]: 1450 nM
- GI50 [36]: 1390 nM
- TGI [36]: 2700 nM
- GI50 [37]: 1650 nM
- TGI [37]: 3350 nM
- GI50 [38]: 1230 nM
- TGI [38]: 2670 nM
- GI50 [39]: 1930 nM
- TGI [39]: 4960 nM
- GI50 [40]: 294 nM
- TGI [40]: > 100000 nM
- GI50 [41]: 3030 nM
- TGI [41]: 9270 nM
- GI50 [42]: 1920 nM
- TGI [42]: 4830 nM
- GI50 [43]: 1200 nM
- TGI [43]: 2640 nM
- GI50 [44]: 189 nM
- TGI [44]: 414 nM
- GI50 [45]: 451 nM
- TGI [45]: 2070 nM
- GI50 [46]: 655 nM
- TGI [46]: 1940 nM
- GI50 [47]: 17100 nM
- TGI [47]: 31000 nM
- GI50 [48]: 403 nM
- TGI [48]: 2210 nM
- GI50 [49]: 402 nM
- TGI [49]: 1450 nM
- GI50 [50]: 184 nM
- TGI [50]: 404 nM
- GI50 [51]: 1480 nM
- TGI [51]: 2890 nM
- GI50 [52]: 1690 nM
- TGI [52]: 3950 nM
- GI50 [53]: 1540 nM
- TGI [53]: 2980 nM
- GI50 [54]: 1650 nM
- TGI [54]: 3540 nM
- GI50 [55]: 1190 nM
- TGI [55]: 4020 nM
- GI50 [56]: 547 nM
- TGI [56]: 1930 nM
- GI50 [58]: 1330 nM
- TGI [58]: 7000 nM

From PubChem BioAssay (NCI)
